Patent publication US11459586B2, “Methods for increasing efficiency of nuclease-mediated gene editing in stem cells” (President and Fellows of Harvard College, priority 2016, dated 2022)

System: human iPSC
Assay: simultaneous multiplex mThy1 and mCD147 gene replacement in hiPSC
Assay type: cell-based
Source text: FIGS. 5A-B. Bcl-2 overexpression enables double homozygous targeted gene replacement in human iPSC. FIG. 5A. Mouse Thy1 gene targeting scheme (left). Mouse CD147 gene targeting scheme (right): Two sgRNAs target human BSG (CD147) within intron 1 (Left) or after the polyadenylation site (Right). The mouse CD147 targeting vector plasmid contains mCD147 coding exons 2-7, flanked by hCD147 homology arms outside the sgRNA sites—coding exon 1 (which encodes the signal peptide) is retained but the sgRNA sites are disrupted. FIG. 5B. Plain human iPSC were transfected with 1 μg each of the mThy1 and mCD147 targeting vectors together with a total of 2 μg “Cas9 only sgRNA” or “Cas9 Bcl-2 sgRNA” expression plasmid. Cells were transfected with the following sgRNA combinations: Thy1 Left and CD147 Left, Thy1 Right and CD147 Right, all four Thy1 and CD147 sgRNAs, or Negative sgRNA #1. Nine days later, cells were analyzed by flow cytometry for mThy1, hThy1, mCD147, and hCD147 expression. Upper two plots show the percent of Thy1 or CD147 gene replacement as gated on all live single iPSC. Lower four plots show the percent of CD147 gene replacement as gated on the Thy1 gene targeting quadrants. Results are representative of four independent experiments.
The U6 promoter-sgRNA (for each sgRNA sequence) was cloned into the EF1α promoter-Cas9 nuclease or EF1α promoter-Cas9 nuclease-IRES-Bcl-2 expression plasmids to form the “Cas9 only sgRNA” or “Cas9 Bcl-2 sgRNA” plasmids used in Examples 6 and 7.
Previously, low gene targeting frequencies in hiPSC could be overcome by clever enrichment or selection schemes. However, for simultaneous multiplex gene targeting, a higher absolute frequency is needed. […] Plain hiPSC were transfected with both mThy1 and mCD147 targeting vectors together with the “Cas9 only sgRNA” or “Cas9 Bcl-2 sgRNA” plasmids. Combinations of both Left sgRNAs, both Right sgRNAs, all four sgRNAs, or a negative control sgRNA were used. Cultures were then analyzed by flow cytometry for hThy1, mThy1, hCD147, and mCD147 expression. […] When cell populations were gated on homozygous mThy1 gene replacement (red) and then analyzed for mCD147 gene replacement, we found an enrichment of mCD147 events, rather than an independent assortment of gene editing outcomes. Likewise, when all four sgRNAs were transfected, the mThy1^−hThy1^− double negative population (blue) contained an enriched proportion of mCD147^−hCD147^− cells. Even considering an overall transfection rate of 60-70%, these enrichments indicate that hiPSC may be poised for either HR or NHEJ at various periods. With Bcl-2, the frequency of HR-mediated double homozygous gene replacements (mThy1^+hThy1^− mCD147^+hCD147^−) increased by an order of magnitude (Left sgRNAs: from 0.02% to 0.16%; Right sgRNAs: from 0.01% to 0.37%). […]

Bcl-2: B cell lymphoma 2 protein, anti-apoptotic, overexpressed from lentivirus or Cas9 plasmid
frequency of HR-mediated double homozygous gene replacements (mThy1+hThy1- mCD147+hCD147-) (Left sgRNAs, with Bcl-2 (from 0.02% without)): 0.16% | frequency of HR-mediated double homozygous gene replacements (mThy1+hThy1- mCD147+hCD147-) (Right sgRNAs, with Bcl-2 (from 0.01% without)): 0.37% | NHEJ-mediated quadruple-negative deletions (mThy1-hThy1- mCD147-hCD147-) (all four sgRNAs, with Bcl-2 (from 0.7% without)): 1.1% | gene editing frequencies (multiplex mThy1 and mCD147 targeting, every sgRNA combination): improved gene editing frequencies
